# Data as given in patent US20230241014A1, “MEK-INHIBITORS FOR THE TREATMENT OR PREVENTION OF CORONAVIRUS INFECTIONS AND/OR COVID-19 CYTOKINE STORM” (priority 2020, published 2023).
# Test system: VSV pseudotype virus carrying the SARS-CoV-2 Spike protein
# Assay type: cell-based
structure (smiles),measurement,value
"O=C(NOCC1CC1)c1ccc(F)c(F)c1Nc1ccc(I)cc1Cl [CI-1040, reference compound]",internalization of the VSV pseudotype virus (GFP positive cells),reduction in the internalization
